Results: patent US5650415A, “Quinoline compounds” (Sugen, Inc., priority 1995, dated 1997)

Legend:
PDGFR = molecular target: T1, PDGFR (Homo sapiens, UniProt P09619); test: PDGF-R Cellular Assay (ELISA); format: cell-based; settings: U1242 human glioblastoma cells
T1 construct: endogenous in cells; host or cells: U1242 MG human glioblastoma cells
From the text: (§1) The following examples illustrates the ability of the exemplary compounds to inhibit receptor tyrosine kinases, such as HER2 and/or EGFR. The following target cells were used for cellular kinase assays: NIH3T3 clone C7 (Honegger et al., supra) engineered to over-express human EGF receptor; NIH3T3 cells engineered to over-express a chimeric receptor containing the EGFR extracellular domain and the HER2 intracellular kinase domain; the human mammary carcinoma line BT474 (ATCC HTB2) expressing HER2; and the human glioblastoma line U1242 that expresses PDGFR-beta. Growth assays were carried out using human mammary epithelial SKBR3 (ATCC HTB30) cells (SKBR3 cells over-express HER2), SKOV3 (AT(D(D HTB77) human ovarian cancer cell line (SKOV3 cells also over-express HER2), A431 cells (A431 cells over-express EGFR) MCF7 human breast carcinoma cells, MCF7 cells overexpressing the HER2 kinase (MCF7-HER2), NIH3T3 cells, and NIH3T3 cells overexpressing the HER2 kinase (3T3-HER2.
The PDGF cellular kinase assay was carried out as follows: cells are lysed in 0.2M Hepes, 0.15M NaCl, 10% VN glycerol, 0.04% Triton X-100, 5 mM EDTA, 5 mM Na+ vanadate and 2 mM Na+ pyrophosphate; cell lysates are then added to an ELISA plate coated with an anti-PDGF receptor antibody (Genzyme); ELISA plates are coated at 0.5 μg of antibody/well in 150 μl of PBS for 18 hours at 4° C. prior to the addition of the lysate; the lysate is incubated in the coated plates for 1 hour and then washed four times in TBST (35 mM Tris-HCl pH 7.0, 0.15M NaCl, 0.1% Triton X100); anti-phosphotyrosine antibody (100 μl in PBS) is added and the mixture is incubated for 30 minutes at room temperature; the wells were then washed four times in TBST, a secondary antibody conjugated to POD (TAGO) is added to each well, and the treated well are incubated for 30 minutes at room temperature; the wells are then washed four times in TBST, ABTS/H2 O2 solution is added to each well and the wells are incubated for two minutes; absorbance is then measured at 410 nm.
U1242 MG cells were plated in 96-well plates at a concentration of 5×10^4 cells/well in cultured media containing 0.5% FBS. The cells were incubated for 24 hours. The cells were then treated with a particular compound for 2 hours followed by the addition of 100 ng/ml PDGF-BB and incubation for 10 minutes.
Cells were lysed in 0.2M Hepes, 0.15M NaCl, 10% VN glycerol, 0.04% Triton X-100, 5 mM EDTA, 5 mM Na^+ vanadate and 2 mM Na^+ pyrophosphate. Cell lysates were then added to an ELISA plate coated with an anti-PDGF receptor antibody (Genzyme). ELISA plates were coated at 0.5 μg of antibody/well in 150 μl of PBS for 18 hours at 4° C. prior to the addition of the lysate.
The lysate was incubated in the coated plates for 1 hour and then washed four times in TBST (35 mM Tris-HCl pH 7.0, 0.15M NaCl, 0.1% Triton X-100). Anti-phosphotyrosine antibody (100 μl in PBS) was added and the mixture was incubated for 30 minutes at room temperature. The wells were then washed four times in TBST, a secondary antibody conjugated to POD (TAGO) was added to each well, and the treated well were incubated for 30 minutes at room temperature. The wells were then washed four times in TBST, ABTS/H2 O2 solution was added to each well and the wells were incubated for two minutes. Absorbance was then measured at 410 nm.

EGFR = molecular target: T2, EGFR (Homo sapiens, UniProt P00533); test: EGFR Whole Cell Kinase Assay (ELISA); format: cell-based; settings: NIH3T3 clone C7 over-expressing human EGF receptor
T2 construct: expressed in transfected cells; host or cells: NIH3T3 clone C7 (EGFR/C7)
From the text: as §1
EGFR Whole Cell Kinase Assay
EGFR kinase activity (EGFR-3T3 assay) in whole cells was measured as described below:
A. Coat ELISA plates (Corning, 96 well, Cat. #25805-96) with 05-101 antibody at 0.5 μg per well in PBS, 150 μl final volume/well, and store overnight at 4.sunburst. C. Coated plates are good for up to 10 days when stored at 4.sunburst. C.
B. On day of use, remove coating buffer and replace with blocking buffer (5% Carnation Instant NonFat Dry Milk in PBS). Incubate the plate, shaking, at room temperature (about 23.sunburst. C. to 25.sunburst. C.) for 30 minutes. Just prior to use, remove blocking buffer and wash plate 4 times with TBST buffer.
A. EGFR/C7 cell line (Honegger, et al., supra) can be used for this assay.
B. Choose dishes having 80-90% confluence for the experiment. Trypsinize cells and stop reaction by adding 10% CS DMEM medium. Suspend cells in DMEM medium (10% CS DMEM medium) and centrifuge once at 1000 rpm, and once at room temperature for 5 minutes.
C. Resuspend cells in seeding medium (DMEM, 0.5% bovine serum), and count the cells using trypan blue. Viability above 90% is acceptable. Seed cells in DMEM medium (0.5% bovine serum) at a density of 10,000 cells per well, 100 μl per well, in a 96 well microtiter plate. Incubate seeded cells in 5% CO2 at 37.sunburst. C. for about 40 hours.
A. Check seeded cells for contamination using an inverted microscope. Dilute drug stock (10 mg/ml in DMSO) 1:10 in DMEM medium, then transfer 5 μl to a test well for a final drug dilution of 1:200 and a final DMSO concentration of […]. Control wells receive DMSO alone. Incubate in 5% CO2 at 37° C. for one hour.
B. Prepare EGF ligand: dilute stock EGF in DMEM so that upon transfer of 10 μl dilute EGF (1:12 dilution), 25 nM final concentration is attained.
C. Prepare fresh HNTG* sufficient for 100 μl per well; and place on ice.
D. After two hours incubation with drug, add prepared EGF ligand to cells, 10 μl per well, to yield a final concentration of 25 nM. Control wells receive DMEM alone. Incubate, shaking, at room temperature, for 5 minutes.
E. Remove drug, EGF, and DMEM. Wash cells twice with PBS. Transfer HNTG* to cells, 100 μl per well. Place on ice for 5 minutes. Meanwhile, remove blocking buffer from other ELISA plate and wash with TBST as described above.
F. With a pipette tip securely fitted to a micropipettor, scrape cells from plate and homogenize cell material by repeatedly aspirating and dispensing the HNTG* lysis buffer. Transfer lysate to a coated, blocked, and washed ELISA plate. Incubate shaking at room temperature for one hour.
G. Remove lysate and wash 4 times with TBST. Transfer freshly diluted anti-Ptyr antibody to ELISA plate at 100 μl per well. Incubate shaking at room temperature for 30 minutes in the presence of the anti-Ptyr antiserum (1:3000 dilution in TBST).
H. Remove the anti-Ptyr antibody and wash 4 times with TBST. […]

T2 sequence (P00533 25-1210): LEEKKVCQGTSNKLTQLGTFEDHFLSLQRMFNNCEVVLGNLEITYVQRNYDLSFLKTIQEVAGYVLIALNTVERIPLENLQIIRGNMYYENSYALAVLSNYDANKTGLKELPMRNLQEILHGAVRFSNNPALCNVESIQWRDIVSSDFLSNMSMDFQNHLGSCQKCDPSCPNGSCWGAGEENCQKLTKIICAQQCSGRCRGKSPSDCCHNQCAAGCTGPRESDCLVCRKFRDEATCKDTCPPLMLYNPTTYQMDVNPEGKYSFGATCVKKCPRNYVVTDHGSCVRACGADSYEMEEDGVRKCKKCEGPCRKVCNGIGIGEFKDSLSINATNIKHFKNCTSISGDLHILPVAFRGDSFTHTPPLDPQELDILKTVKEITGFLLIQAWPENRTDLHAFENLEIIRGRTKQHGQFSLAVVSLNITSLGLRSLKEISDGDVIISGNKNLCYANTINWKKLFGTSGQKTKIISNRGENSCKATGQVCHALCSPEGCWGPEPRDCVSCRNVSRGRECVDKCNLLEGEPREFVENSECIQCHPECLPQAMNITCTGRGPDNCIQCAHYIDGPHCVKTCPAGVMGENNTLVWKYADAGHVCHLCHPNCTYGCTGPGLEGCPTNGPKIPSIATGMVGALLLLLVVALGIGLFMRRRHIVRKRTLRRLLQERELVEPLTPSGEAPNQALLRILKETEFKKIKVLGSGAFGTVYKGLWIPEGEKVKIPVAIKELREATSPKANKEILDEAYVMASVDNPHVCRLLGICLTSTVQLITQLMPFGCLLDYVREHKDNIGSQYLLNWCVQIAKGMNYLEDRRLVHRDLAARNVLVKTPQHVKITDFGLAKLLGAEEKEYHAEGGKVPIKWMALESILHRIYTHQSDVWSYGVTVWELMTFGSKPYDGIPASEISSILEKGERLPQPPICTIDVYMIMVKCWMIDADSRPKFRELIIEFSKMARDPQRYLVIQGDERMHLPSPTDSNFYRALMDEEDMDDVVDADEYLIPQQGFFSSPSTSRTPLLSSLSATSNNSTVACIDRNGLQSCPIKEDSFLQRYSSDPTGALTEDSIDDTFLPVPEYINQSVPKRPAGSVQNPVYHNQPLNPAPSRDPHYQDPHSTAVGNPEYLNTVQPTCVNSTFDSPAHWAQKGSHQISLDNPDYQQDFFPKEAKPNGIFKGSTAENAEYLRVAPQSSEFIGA
T1 sequence (P09619 33-1106): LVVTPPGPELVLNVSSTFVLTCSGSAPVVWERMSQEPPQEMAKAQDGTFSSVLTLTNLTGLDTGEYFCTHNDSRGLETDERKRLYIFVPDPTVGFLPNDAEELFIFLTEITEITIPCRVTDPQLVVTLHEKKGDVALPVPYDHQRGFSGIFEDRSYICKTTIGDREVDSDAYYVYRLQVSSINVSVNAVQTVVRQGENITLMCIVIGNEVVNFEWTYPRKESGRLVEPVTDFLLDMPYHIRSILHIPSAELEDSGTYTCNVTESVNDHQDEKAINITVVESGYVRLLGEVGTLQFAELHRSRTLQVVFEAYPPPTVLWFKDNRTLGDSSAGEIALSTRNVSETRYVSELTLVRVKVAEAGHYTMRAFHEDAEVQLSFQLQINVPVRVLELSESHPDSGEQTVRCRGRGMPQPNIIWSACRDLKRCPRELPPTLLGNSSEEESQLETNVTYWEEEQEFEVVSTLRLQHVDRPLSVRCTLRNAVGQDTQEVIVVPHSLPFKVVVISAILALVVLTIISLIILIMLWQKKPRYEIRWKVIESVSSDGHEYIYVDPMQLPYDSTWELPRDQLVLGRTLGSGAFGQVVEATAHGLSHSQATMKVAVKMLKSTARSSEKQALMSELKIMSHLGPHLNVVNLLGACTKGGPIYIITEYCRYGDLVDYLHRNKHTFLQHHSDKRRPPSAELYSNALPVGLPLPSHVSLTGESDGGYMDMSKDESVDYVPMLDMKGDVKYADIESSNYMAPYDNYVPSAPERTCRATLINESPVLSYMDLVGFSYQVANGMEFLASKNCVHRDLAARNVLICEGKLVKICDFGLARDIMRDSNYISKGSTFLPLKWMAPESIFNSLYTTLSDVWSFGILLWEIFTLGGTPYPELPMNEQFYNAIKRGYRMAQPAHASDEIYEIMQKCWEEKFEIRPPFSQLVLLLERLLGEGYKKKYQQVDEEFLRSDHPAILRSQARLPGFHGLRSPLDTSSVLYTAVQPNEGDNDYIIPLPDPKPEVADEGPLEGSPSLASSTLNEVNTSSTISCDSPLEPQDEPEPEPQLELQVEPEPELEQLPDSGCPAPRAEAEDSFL

IC50 (PDGFR) [µM] | IC50 (EGFR) [µM] | SMILES
> 100 | > 100 | CCOC(=O)c1cnc2ccc(C(F)(F)F)cc2c1Nc1cccc(C(F)(F)F)c1 [Compound A721, 3-Ethoxycarbonyl-4-(3-trifluoromethylphenylamino)-6-trifluoromethylquinoline]
> 100 | > 100 | CCOC(=O)c1cnc2ccc(C(F)(F)F)cc2c1Nc1ccc(C(F)(F)F)cc1 [Compound A722, 3-Ethoxycarbonyl-4-(4-trifluoromethylphenylamino)-6-trifluoromethylquinoline]

The next lines start with the molecule.

SMILES | IC50 (PDGFR) [µM] | IC50 (EGFR) [µM]
CCOC(=O)c1cnc2ccc(C(F)(F)F)cc2c1Nc1cccc(Br)c1 [Compound A716, 4-(3-Bromophenylamino)-3-ethoxycarbonyl-6-trifluoromethylquinoline] | > 100 | > 100
CCOC(=O)c1cnc2c(F)cc(F)cc2c1Sc1ccc(Cl)cc1 [Compound A730, 4-(4-Chlorophenylmercapto)-6,8-difluoro-3-ethoxycarbonylquinoline] | > 50 | > 50
CCOC(=O)c1cnc2c(F)ccc(F)c2c1Sc1cccc(C(F)(F)F)c1 [Compound A713, 3-Ethoxycarbonyl-5,8-difluoro-4-(3-trifluoromethylphenylmercapto)quinoline] | > 50 | > 100
CCOC(=O)c1cnc2cc(Cl)c(F)cc2c1Sc1ccc(Cl)cc1 [Compound A731, 7-Chloro-4-(4-chlorophenylmercapto)-6-fluoro-3-ethoxycarbonylquinoline] | > 50 | > 50
CCOC(=O)c1cnc2c(F)ccc(F)c2c1Sc1ccc(Cl)cc1 [Compound A732, 4-(4-Chlorophenylmercapto)-5,8-difluoro-3-ethoxycarbonylquinoline] | > 50 | > 100
